Test results from US20260262643A1, “HERBICIDAL BENZOXAZINES” (FMC CORPORATION, priority 2022, published 2026).

What was measured:
[1] = tested on: barnyardgrass; assay: Test A preemergence; type: in vivo, Echinochloa crusgalli; conditions: 1000 g ai/ha, 0 to 100 scale (0 no effect, 100 complete control), 10 days
Method in brief: (§1)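 Seeds in loam–sand blend received a directed preemergence soil spray of compound in non-phytotoxic solvent with surfactant; postemergence plants (2–10 cm, one- to two-leaf stage) were sprayed with the same formulation. After 10 days in greenhouse, injury was rated visually versus untreated controls, 0 (no effect) to 100 (complete control).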

[2] = tested on: foxtail, giant; assay: Test A preemergence; type: in vivo, Setaria faberi; conditions: 1000 g ai/ha, 0 to 100 scale (0 no effect, 100 complete control), 10 days
Method in brief: as §1

[3] = tested on: kochia; assay: Test A preemergence; type: in vivo, Bassia scoparia; conditions: 1000 g ai/ha, 0 to 100 scale (0 no effect, 100 complete control), 10 days
Method in brief: as §1

[4] = tested on: Pigweed, Redroot; assay: Test A preemergence; type: in vivo, Amaranthus retroflexus; conditions: 1000 g ai/ha, 0 to 100 scale (0 no effect, 100 complete control), 10 days
From the text: Seeds of plant species selected from barnyardgrass (Echinochloa crusgalli), blackgrass (Alopecurus myosuroides), corn (Zea mays), foxtail, giant (giant foxtail, Setaria faberi), goosegrass (Eleusine indica), kochia (Bassia scoparia), oat, wild (wild oat, Avena fatua), pigweed, palmer (palmer amaranth, palmer pigweed, Amaranthus palmeri), Pigweed, Redroot (redroot pigweed, Amaranthus retroflexus), ragweed (common ragweed, Ambrosia artemisiifolia), ryegrass, Italian (italian ryegrass, Lolium multiflorum), soybean (Glycine max), and wheat (Triticum aestivum) were planted into a blend of loam soil and sand and treated preemergence with a directed soil spray using test chemicals formulated in a non-phytotoxic solvent mixture which included a surfactant. At the same time, plants selected from these crops and weed species and also galium (catchweed bedstraw, Galium aparine) and horseweed (Erigeron canadensis) were planted in pots containing the same blend of loam soil and sand and treated with postemergence applications of test chemicals formulated in the same manner. Plants ranged in height from 2 to 10 cm and were in the one- to two-leaf stage for the postemergence treatment. Treated plants and untreated controls were maintained in a greenhouse for 10 days, after which time all treated plants were compared to untreated controls and visually evaluated for injury. Plant response ratings, summarized in Table A, are based on a 0 to 100 scale where 0 is no effect and 100 is complete control. A dash (-) response means no test result.

[5] = tested on: ragweed; assay: Test A preemergence; type: in vivo, Ambrosia artemisiifolia; conditions: 1000 g ai/ha, 0 to 100 scale (0 no effect, 100 complete control), 10 days
Method in brief: as §1

[6] = tested on: ryegrass, Italian; assay: Test A preemergence; type: in vivo, Lolium multiflorum; conditions: 1000 g ai/ha, 0 to 100 scale (0 no effect, 100 complete control), 10 days
Method in brief: as §1

[7] = tested on: barnyardgrass; assay: Test C preemergence; type: in vivo, Echinochloa crusgalli
Method in brief: (§2)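 Visual injury score, 0–100 (100 = complete control), taken 10 days after treatment relative to untreated controls. Pre: directed spray onto soil over sown seeds. Post: foliar spray at one- to two-leaf stage, 2–10 cm. Solvent/surfactant formulation; loam–sand soil; greenhouse.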

[8] = tested on: blackgrass; assay: Test C preemergence; type: in vivo, Alopecurus myosuroides
Method in brief: as §2

[9] = tested on: corn; assay: Test C preemergence; type: in vivo, Zea mays
Method in brief: as §2

[10] = tested on: foxtail, giant; assay: Test C preemergence; type: in vivo, Setaria faberi
Method in brief: as §2

[11] = tested on: kochia; assay: Test C preemergence; type: in vivo, Bassia scoparia
Method in brief: as §2

[12] = tested on: oat, wild; assay: Test C preemergence; type: in vivo, Avena fatua
Method in brief: as §2

[13] = tested on: pigweed, palmer; assay: Test C preemergence; type: in vivo, Amaranthus palmeri
Method in brief: as §2

[14] = tested on: ragweed; assay: Test C preemergence; type: in vivo, Ambrosia artemisiifolia
Method in brief: as §2

[15] = tested on: ryegrass, Italian; assay: Test C preemergence; type: in vivo, Lolium multiflorum
Method in brief: as §2

[16] = tested on: soybean; assay: Test C preemergence; type: in vivo, Glycine max
Method in brief: as §2

[17] = tested on: wheat; assay: Test C preemergence; type: in vivo, Triticum aestivum
Method in brief: as §2

[18] = tested on: barnyardgrass; assay: Test C postemergence; type: in vivo, Echinochloa crusgalli; conditions: 10 days, 0 to 100 scale (0 no effect, 100 complete control)
Method in brief: as §2

[19] = tested on: blackgrass; assay: Test C postemergence; type: in vivo, Alopecurus myosuroides; conditions: 10 days, 0 to 100 scale (0 no effect, 100 complete control)
Method in brief: as §2

[20] = tested on: corn; assay: Test C postemergence; type: in vivo, Zea mays; conditions: 10 days, 0 to 100 scale (0 no effect, 100 complete control)
Method in brief: as §2

[21] = tested on: foxtail, giant; assay: Test C postemergence; type: in vivo, Setaria faberi; conditions: 10 days, 0 to 100 scale (0 no effect, 100 complete control)
Method in brief: as §2

[22] = tested on: kochia; assay: Test C postemergence; type: in vivo, Bassia scoparia; conditions: 10 days, 0 to 100 scale (0 no effect, 100 complete control)
Method in brief: as §2

[23] = tested on: oat, wild; assay: Test C postemergence; type: in vivo, Avena fatua; conditions: 10 days, 0 to 100 scale (0 no effect, 100 complete control)
Method in brief: as §2

[24] = tested on: pigweed, palmer; assay: Test C postemergence; type: in vivo, Amaranthus palmeri; conditions: 10 days, 0 to 100 scale (0 no effect, 100 complete control)
Method in brief: as §2

[25] = tested on: ragweed; assay: Test C postemergence; type: in vivo, Ambrosia artemisiifolia; conditions: 10 days, 0 to 100 scale (0 no effect, 100 complete control)
Method in brief: as §2

[26] = tested on: ryegrass, Italian; assay: Test C postemergence; type: in vivo, Lolium multiflorum; conditions: 10 days, 0 to 100 scale (0 no effect, 100 complete control)
Method in brief: as §2

[27] = tested on: soybean; assay: Test C postemergence; type: in vivo, Glycine max; conditions: 10 days, 0 to 100 scale (0 no effect, 100 complete control)
Method in brief: as §2

[28] = tested on: wheat; assay: Test C postemergence; type: in vivo, Triticum aestivum; conditions: 10 days, 0 to 100 scale (0 no effect, 100 complete control)
Method in brief: as §2

[29] = tested on: galium; assay: Test C postemergence; type: in vivo, Galium aparine; conditions: 10 days, 0 to 100 scale (0 no effect, 100 complete control)
Method in brief: as §2

[30] = tested on: horseweed; assay: Test C postemergence; type: in vivo, Erigeron canadensis; conditions: 10 days, 0 to 100 scale (0 no effect, 100 complete control)
Method in brief: as §2

[31] = tested on: barnyardgrass; assay: Test D flooded paddy test; type: in vivo, Echinochloa crus-galli; conditions: 250 g ai/ha, applied to paddy water, visual rating after 13 to 14 days, scale 0 to 100 (0 no effect, 100 complete control)
Method in brief: (§3)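 Plants grown to the 2-leaf stage; pots flooded to 3 cm above soil at treatment and held at that depth throughout. Test compounds applied directly to the paddy water. After 13 to 14 days in a greenhouse, response was rated visually versus controls on a 0 (no effect) to 100 (complete control) scale.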

[32] = tested on: ducksalad; assay: Test D flooded paddy test; type: in vivo, Heteranthera limosa; conditions: 250 g ai/ha, applied to paddy water, visual rating after 13 to 14 days, scale 0 to 100 (0 no effect, 100 complete control)
Method in brief: as §3

[33] = tested on: rice; assay: Test D flooded paddy test; type: in vivo, Oryza sativa; conditions: 250 g ai/ha, applied to paddy water, visual rating after 13 to 14 days, scale 0 to 100 (0 no effect, 100 complete control)
Method in brief: as §3

[34] = tested on: sedge, umbrella; assay: Test D flooded paddy test; type: in vivo, Cyperus difformis; conditions: 250 g ai/ha, applied to paddy water, visual rating after 13 to 14 days, scale 0 to 100 (0 no effect, 100 complete control)
Method in brief: as §3

[35] = 500 g ai/ha, preemergence, 0 to 100 scale (0 no effect, 100 complete control)
[36] = Preemergence, 125 g ai/ha, 0 to 100 scale, 0 no effect, 100 complete control

Compound: CC(C)C1CN(C(=O)c2ccnc(-n3cncn3)c2)c2cccc(Cl)c2O1 (stereo not shown) [Compound 3]
- Plant response rating, Barnyardgrass [1]: 0
- Plant response rating, Foxtail, Giant [2]: 0
- Plant response rating, Kochia [3]: 0
- Plant response rating, Pigweed, Redroot [4]: 0
- Plant response rating, Ragweed [5]: 0
- Plant response rating, Ryegrass, Italian [6]: 0

Compound: CC1CN(C(=O)c2ccnc(-n3cncn3)c2)c2ccccc2O1 (stereo not shown) [Compounds 8]
- Plant response rating, Barnyardgrass [1]: 0
- Plant response rating, Foxtail, Giant [2]: 90
- Plant response rating, Kochia [3]: 50
- Plant response rating, Pigweed, Redroot [4]: 10
- Plant response rating, Ragweed [5]: 0
- Plant response rating, Ryegrass, Italian [6]: 40

Compound: CCCC1CN(C(=O)c2ccnc(-n3cncn3)c2)c2cccc(Cl)c2O1 (stereo not shown) [Compound 2]
- Plant response rating, Barnyardgrass [1]: 60
- Plant response rating, Foxtail, Giant [2]: 100
- Plant response rating, Kochia [3]: 0
- Plant response rating, Pigweed, Redroot [4]: 20
- Plant response rating, Ragweed [5]: 0
- Plant response rating, Ryegrass, Italian [6]: 60

Compound: CCC1CN(C(=O)c2ccnc(-n3cncn3)c2)c2cccc(Br)c2O1 (stereo not shown) [Compound 13]
- Plant response rating, Barnyardgrass [1]: 0
- Plant response rating, Foxtail, Giant [2]: 90
- Plant response rating, Kochia [3]: 60
- Plant response rating, Pigweed, Redroot [4]: 50
- Plant response rating, Ragweed [5]: 0
- Plant response rating, Ryegrass, Italian [6]: 30

Compound: CCC1CN(C(=O)c2ccnc(-n3cncn3)c2)c2cccc(F)c2O1 (stereo not shown) [Compound 15]
- Plant response rating, Barnyardgrass [1]: 60
- Plant response rating, Foxtail, Giant [2]: 100
- Plant response rating, Kochia [3]: 60
- Plant response rating, Pigweed, Redroot [4]: 90
- Plant response rating, Ragweed [5]: 0
- Plant response rating, Ryegrass, Italian [6]: 60

Compound: CC(C)c1ncn(-c2cc(C(=O)N3CC(C(F)(F)F)Oc4c(Cl)cccc43)ccn2)n1 (single isomer, unassigned) [Compound 330]
- Barnyardgrass plant response rating [7, 35]: 100
- Plant response rating, Barnyardgrass [7, 36]: 70
- Blackgrass plant response rating [8, 35]: 90
- Plant response rating, Blackgrass [8, 36]: 70
- Corn plant response rating [9, 35]: 60
- Plant response rating, Corn [9, 36]: 10
- Foxtail, Giant plant response rating [10, 35]: 100
- Plant response rating, Foxtail, Giant [10, 36]: 100
- Kochia plant response rating [11, 35]: 90
- Plant response rating, Kochia [11, 36]: 30
- Oat, Wild plant response rating [12, 35]: 60
- Plant response rating, Oat, Wild [12, 36]: 30
- Pigweed, Palmer plant response rating [13, 35]: 100
- Plant response rating, Pigweed, Palmer [13, 36]: 100
- Ragweed plant response rating [14, 35]: 50
- Plant response rating, Ragweed [14, 36]: 0
- Ryegrass, Italian plant response rating [15, 35]: 100
- Plant response rating, Ryegrass, Italian [15, 36]: 100
- Soybean plant response rating [16, 35]: 80
- Plant response rating, Soybean [16, 36]: 40
- Wheat plant response rating [17, 35]: 30
- Plant response rating, Wheat [17, 36]: 20
- Plant response rating, Barnyardgrass ([18]; 500 g ai/ha, postemergence): 70
- Plant response rating, Barnyardgrass ([18]; Postemergence, 125 g ai/ha): 50
- Plant response rating, Blackgrass ([19]; 500 g ai/ha, postemergence): 90
- Plant response rating, Blackgrass ([19]; Postemergence, 125 g ai/ha): 40
- Plant response rating, Corn ([20]; 500 g ai/ha, postemergence): 90
- Plant response rating, Corn ([20]; Postemergence, 125 g ai/ha): 70
- Plant response rating, Foxtail, Giant ([21]; 500 g ai/ha, postemergence): 90
- Plant response rating, Foxtail, Giant ([21]; Postemergence, 125 g ai/ha): 50
- Plant response rating, Kochia ([22]; 500 g ai/ha, postemergence): 100
- Plant response rating, Kochia ([22]; Postemergence, 125 g ai/ha): 80
- Plant response rating, Oat, Wild ([23]; 500 g ai/ha, postemergence): 70
- Plant response rating, Oat, Wild ([23]; Postemergence, 125 g ai/ha): 30
- Plant response rating, Pigweed, Palmer ([24]; 500 g ai/ha, postemergence): 100
- Plant response rating, Pigweed, Palmer ([24]; Postemergence, 125 g ai/ha): 70
- Plant response rating, Ragweed ([25]; 500 g ai/ha, postemergence): 40
- Plant response rating, Ragweed ([25]; Postemergence, 125 g ai/ha): 30
- Plant response rating, Ryegrass, Italian ([26]; 500 g ai/ha, postemergence): 90
- Plant response rating, Ryegrass, Italian ([26]; Postemergence, 125 g ai/ha): 40
- Plant response rating, Soybean ([27]; 500 g ai/ha, postemergence): 100
- Plant response rating, Soybean ([27]; Postemergence, 125 g ai/ha): 100
- Plant response rating, Wheat ([28]; 500 g ai/ha, postemergence): 30
- Plant response rating, Wheat ([28]; Postemergence, 125 g ai/ha): 20
- Plant response rating, Galium ([29]; 500 g ai/ha, postemergence): 100
- Plant response rating, Galium ([29]; Postemergence, 125 g ai/ha): 100
- Plant response rating, Horseweed ([30]; 500 g ai/ha, postemergence): 20
- Plant response rating, Horseweed ([30]; Postemergence, 125 g ai/ha): 0
- Plant response rating, Barnyardgrass (Flood) [31]: 0
- Plant response rating, Ducksalad (Flood) [32]: 0
- Plant response rating, Rice (Flood) [33]: 0
- Plant response rating, Sedge, Umbrella (Flood) [34]: 0
